In patent US6077843A, “Aqueous suspensions of 9-hydroxyrisperidone fatty acid esters” (Janssen Pharmaceutica, N.V., priority 1996, dated 2000):
Blank lines part the entries; values can stand above or below the compound they belong to.

Experiments:
[1] = cited from earlier work
[2] = pamoate salt; cited from earlier work
[3] = compared with risperidone; cited from earlier work
[4] = Particle size distribution of the milled and sieved ester; type: physicochemical
Text: # The ester was milled and sieved using appropriate nominal standard test sieves, yielding active ingredient having a particle size distribution as follows: […]

[5] = Pharmacokinetic investigations on ester depot formulations (described in words); type: in vivo; details: versus other C10-20 alkanoic acid esters
[6] = Systemic and local tolerance of depot formulations (described in words); type: in vivo
[7] = compared with 9-hydroxy-risperidone; cited from earlier work
[8] = cited from earlier work; remark: listed apart in the source

Compound: Cc1nc2n(c(=O)c1CCN1CCC(c3noc4cc(F)ccc34)CC1)CCCC2 [risperidone pamoate]
initial plasma levels ([1]; suspension, WO-94/25460): relatively high initial plasma levels | mean duration of action ([1]; suspension, WO-94/25460): inadequate mean duration of action | release of the active ingredient ([1]; suspension, WO-94/25460): too rapid | water solubility [2]: poorly water-soluble

Compound: Cc1nc2n(c(=O)c1CCN1CCC(c3noc4cc(F)ccc34)CC1)CCCC2O (stereo not shown) [9-hydroxyrisperidone]
pharmacological profile and potency [3]: comparable with that of the parent drug risperidone | elimination half-life ([1]; compared with risperidone): longer elimination half-life

particle size, 10% of the particles (by volume) ([4]; 10% by volume): ≥ 15 μm | particle size, 50% of the particles (by volume) ([4]; 50% by volume): ≥ 5 μm | particle size, 90% of the particles (by volume) ([4]; 90% by volume): ≥ 0.5 μm | pharmacokinetic point of view [5]: superior ester
Compound: CCCCCCCCCCCCCCCC(=O)OC1CCCn2c1nc(C)c(CCN1CCC(c3noc4cc(F)ccc34)CC1)c2=O (stereo not shown) [9-hydroxyrisperidone palmitate ester]
difference between small or large prodrug particles ([6]; suspensions of the palmitate ester in sesame oil): No significant difference between small or large prodrug particles | tolerance point of view ([6]; versus other C10-20 alkanoic acid esters): superior ester

Compound: Cc1nc2n(c(=O)c1CCN1CCC(c3noc4cc(F)ccc34)CC1)CCCC2 [Risperidone, 3-[2-[4-(6-fluoro-1,2-benzisoxazol-3-yl)-1-piperidinyl]ethyl]-6,7,8,9-tetrahydro-2-methyl-4H-pyridol[1,2-a]pyrimidin-4-one]
distribution to and elimination from the brain tissues [7]: more rapidly than its metabolite 9-hydroxy-risperidone | therapeutic index ([8]; in vivo): relatively narrow therapeutic index | undesirable side effects on overdosage ([8]; overdosage): most notably extra pyramidal syndrome (EPS) and to a lesser extent hypotension | metabolism ([1]; in vivo): metabolized to 9-hydroxyrisperidone
